In paper PMC2833169, “Anti-malarial activity of a non-piperidine library of next-generation quinoline methanols” (Malaria Journal, 2010):
Converted amounts (≈) assume the structure as drawn. Like-named read-outs stand apart in the source and are kept apart here.

Tests used:
[1] = system: MDR1-transfected MDCK cell monolayers; assay: apparent permeability across MDR1-MDCK cell monolayers
Protocol: (§1) For this reason, the apparent permeability of selected compounds across MDR1-transfected MDCK cell monolayers was determined. This assay is an in vitro surrogate of the blood-brain barrier.
(§2) Permeability was determined by Absorption Systems (Exton, PA). MDR1-MDCK cell monolayers were grown to confluence on collagen-coated, microporous, polycarbonate membranes in 12-well Costar Transwell plates. […] The permeability assay buffer was Hanks Balanced Salt Solution containing 10 mM HEPES and 15 mM glucose at a pH of 7.4. A known p-glycoprotein inhibitor cyclosporin A (CSA) was also added to the assay buffer at 10 μM. Bovine serum albumin (1%) was added to the receiver well. The dosing solution concentrations of the test compounds were 5.0 μM in the assay buffer. All cell monolayers were first pre-incubated for 30 minutes with assay buffer. After 30 minutes, the buffer was removed, replaced with fresh buffer, and time was recorded as 0. […] Cell monolayers were dosed on the apical side (A-to-B) or basolateral side (B-to-A) and incubated at 37°C with 5% CO2 in a humidified incubator. After 2 hours, aliquots were taken from the receiver chambers. Samples were taken from the donor chamber at 0 and 2 hours. Each determination was performed in duplicate. The lucifer yellow flux was also measured for each monolayer to ensure no damage was inflicted to the cell monolayers during the flux period. All samples were assayed by LC/MS/MS using electrospray ionization.
(§3) Apparent permeability in the apical (A-B direction), PappA-B, and percent recovery are reported. Apparent permeability is a measure of the rate of transport across the cell monolayer. Percent recovery refers to the amount of compound recoverable at the end of the assay. Low recovery may indicate non-specific binding to assay plates, instability or accumulation in the cell pellet.
(§4) The apparent permeability, Papp, and percent recovery were calculated as follows:
(§5) Papp = (dCr/dt) × Vr/(A × C0) (1)
(§6) Percent Recovery = 100 × ((Vr × Cr^final) + (Vd × Cd^final))/(Vd × […]) (2)

[2] = system: P. falciparum strain D6; assay: labeled hypoxanthine susceptibility assay, P. falciparum D6; assay type: cell-based, Plasmodium falciparum; conditions: Plasmodium falciparum, D6, read-out: IC90 Pf D6, P. falciparum D6; mefloquine: historical mean +/- SD (n)
Protocol: (§7) The in vitro activities of quinoline methanols against P. falciparum strains W2, D6, TM91C235, and TM90C2A were evaluated using the traditional labeled hypoxanthine assay of Desjardins et al as modified by Milhous et al. These four P. falciparum strains were selected since they have various levels of resistance to conventional anti-malarials.

[3] = metabolic stability in mouse liver microsomes; assay type: in vitro ADME
Protocol: Interesting compounds were also submitted for drug-drug interaction and metabolic stability assays. Low IC50s against specific cytochrome P450 isoforms may indicate the potential for a harmful drug interaction to occur in vivo with substrates of that isoform. A lack of metabolic stability in vitro may indicate potential metabolic instability in vivo, and, therefore, a shorter half-life. Drug interaction potential was evaluated in vitro using BD Gentest (Franklin Lakes, NJ) CYP450 inhibition kits as recommended by the manufacturer. Metabolic stability assessments were conducted using in vitro liver microsomes. […] The reaction is started with the addition of 1 U/mL glucose-6-phosphate dehydrogenase G6PD. The mixture is incubated on a shaking platform at 37°C, and aliquots are taken and quenched with the addition of an equal volume of cold acetonitrile at 0, 10, 20, 30, and 60 min. Samples are centrifuged at 3700 rpm for […] at 20°C to remove debris. Sample quantification is carried out by LC/MS, and metabolic half-life is calculated by log plots of the total ion chromatograph area remaining.

[4] = target: T1, A2A receptor (Homo sapiens, UniProt P29274); assay: inhibition of the A2A receptor at 200 nM; assay type: binding; conditions: read-out: % A2A inhibition at 200 nM
T1 construct: Caliper Biosciences (contract screen)
Protocol: (§8) General cytotoxicity was assessed by first determining LC50 's against a rodent macrophage (RAW) cell line using the 3-(4,5-dimethylthiazole-2-yl)-2,5-diphenyltetrazolium bromide (MTT) assay as described in one of our earlier studies. This screen was conducted to identify compounds that may require de-selection due to generalized toxicity. […] In vitro neurocytotoxicity was assessed by determining LC50s against primary mouse neurons using the MTT assay as described previously. Inhibition of the A2A and A1 receptors was determined at 200 nM in duplicate by Caliper Biosciences (Hanover, Maryland).

[5] = in vitro; conditions: mouse
Protocol: as §8

[6] = system: P. falciparum strain TM91C235; assay: labeled hypoxanthine susceptibility assay, P. falciparum TM91C235; assay type: cell-based, Plasmodium falciparum; conditions: Plasmodium falciparum, read-out: IC90 Pf C235
Protocol: as §7

[7] = in vitro; conditions: mouse; remark: listed apart in the source
Protocol: as §8

[8] = target: T2, A1 receptor (Homo sapiens, UniProt P30542); assay: inhibition of the A1 receptor at 200 nM; assay type: binding; conditions: duplicate
T2 construct: Caliper Biosciences (contract screen)
T2 sequence (P30542 1-326): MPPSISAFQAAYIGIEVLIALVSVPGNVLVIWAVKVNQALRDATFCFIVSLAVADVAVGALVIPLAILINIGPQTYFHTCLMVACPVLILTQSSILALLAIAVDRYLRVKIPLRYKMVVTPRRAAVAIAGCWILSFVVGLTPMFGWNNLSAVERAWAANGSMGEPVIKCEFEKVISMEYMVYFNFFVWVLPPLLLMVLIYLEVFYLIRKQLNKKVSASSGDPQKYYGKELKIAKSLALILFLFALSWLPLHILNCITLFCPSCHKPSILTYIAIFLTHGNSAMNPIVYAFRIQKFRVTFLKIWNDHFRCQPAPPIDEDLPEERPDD
Protocol: as §8

[9] = system: P. falciparum strain W2; assay: labeled hypoxanthine susceptibility assay, P. falciparum W2; assay type: cell-based, Plasmodium falciparum; conditions: Plasmodium falciparum, W2, read-out: IC90 Pf W2
Protocol: as §7

[10] = system: P. falciparum strain TM90C2A; assay: labeled hypoxanthine susceptibility assay, P. falciparum TM90C2A; assay type: cell-based, Plasmodium falciparum; conditions: Plasmodium falciparum, TM90C2A
Protocol: as §7

[11] = in vitro; conditions: dog, MDCK-MDR1, pH 7.4
Protocol: as §1, §2, §3, §4, §5, §6

T1 sequence (P29274 whole entry): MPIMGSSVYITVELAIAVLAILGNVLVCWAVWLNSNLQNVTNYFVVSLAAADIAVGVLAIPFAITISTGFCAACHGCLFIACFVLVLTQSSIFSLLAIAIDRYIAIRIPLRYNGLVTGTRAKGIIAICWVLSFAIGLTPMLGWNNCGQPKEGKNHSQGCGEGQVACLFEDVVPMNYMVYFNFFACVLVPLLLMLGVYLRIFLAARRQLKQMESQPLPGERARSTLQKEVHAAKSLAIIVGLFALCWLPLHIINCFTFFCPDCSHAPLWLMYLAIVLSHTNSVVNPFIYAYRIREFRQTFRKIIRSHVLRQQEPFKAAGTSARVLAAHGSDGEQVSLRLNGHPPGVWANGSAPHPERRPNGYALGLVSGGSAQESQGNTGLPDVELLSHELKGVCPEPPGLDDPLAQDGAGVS

Compound	PappA-B MDCK-MDR1 ([1]; apical (A-B) direction, 5.0 μM, 10 μM cyclosporin A, 2 h, mefloquine average of n = 3)	% recovery (MDCK-MDR1 permeability assay) ([1]; compound recoverable at end of assay) [%]	IC90 [2] [µg/mL]	HL in Microsomes ([3]; 1 μM, pH 7.4) [min]	half-life at 1 μM ([3]; mouse, microsomes, pH 7.4) [h]	inhibition at 0.2 µM [4] [%]	CC50 [5] [µM]	IC90 [6] [µg/mL]	CC50 [7] [µg/mL]	inhibition at 0.2 µM [8] [%]	IC90 [9] [µg/mL]	IC90 ([10]; read-out: IC90 Pf C2A) [µg/mL]	IC90 ([10]; read-out: IC90 PfC2A) [µM]	% recovery (MDCK-MDR1 permeability assay) ([1]; dog, MDCK-MDR1, 2 h, 5 μM, pH 7.4) [%]	Papp A→B at 2 h, 5 μM [11] [×10⁻⁶ cm/s]	HL in Microsomes ([3]; Figure 3, species of microsomes not given) [min]
OC(c1cc(C(F)(F)F)nc2c(C(F)(F)F)cccc12)C1CCCCN1 (stereo not drawn) [Mefloquine, mefloquine, reference compound]	9.4 10^-6 cm/s	< 40	0.017 ± 0.011 (≈ 0.0449 µM)	> 60	> 1	62	41	0.052 ± 0.03 (≈ 0.137 µM)	3.72 ± 1.51 (≈ 9.84 µM)	4	0.0062 ± 0.0028 (≈ 0.0164 µM)	0.074 ± 0.032	0.171	–	–	–
OC(CNCC12CCC(C1)NC2)c1cc(C(F)(F)F)nc2c(C(F)(F)F)cccc12 (stereo not drawn) [WR319535/581]	–	–	0.075 (≈ 0.173 µM)	–	–	–	–	0.26 (≈ 0.6 µM)	4.11 (≈ 9.48 µM)	–	0.275 (≈ 0.635 µM)	0.251	–	52	2	> 60
